From ChEMBL document CHEMBL1155508, “Discovery of TRPV1 antagonist ABT-116” (Bioorg Med Chem Lett, 2010) come the findings set out here.

Data set [1] has as its target T1, Transient receptor potential cation channel subfamily V member 1 (Homo sapiens, UniProt Q8NER1). Description: Antagonist activity at human TRPV1. Format: functional.
The subject of data set [2] is Rattus norvegicus. Description: Antiinflammatory activity against complete Freund's adjuvant-induced thermal hyperalgesia in po dosed rat. Format: functional.
Data set [3] is described as follows: Ratio of drug level in brain to plasma in rat at 10 µmol/kg, po. The note with it: read-out: BPR.
For data set [4], the target named is T1, Transient receptor potential cation channel subfamily V member 1. Kind of data set: Antagonist activity at human TRPV1 expressed in HEK293 cells assessed as inhibition of capsaicin-induced effect by capsaicin.
For data set [5], the system named is Rattus norvegicus. Kind of data set: Antiinflammatory activity against carrageenan-induced thermal hyperalgesia in po dosed rat. Format: functional.
The subject of data set [6] is Rattus norvegicus. Kind of data set: Antiinflammatory activity in rat osteoarthritis model assessed as inhibition of thermal hyperalgesia in po dosed rat. Format: functional.
Data set [7] can be described thus: Aqueous solubility of the compound. Format: physicochemical.
In data set [8] the target is Transient receptor potential cation channel subfamily V member 1 (Rattus norvegicus, UniProt O35433). Description: Antagonist activity at rat TRPV1 assessed as inhibition of capsaicin-induced effect. In kind it is functional.
The next data set deals with CYP3A4 (Homo sapiens, UniProt P08684). Description: Inhibition of CYP3A4 assessed as midazolam oxidation at 10 uM. In kind it is ADME. The note with it: probe midazolam.
The subject of data set [9] is Rattus norvegicus. Description: Antiinflammatory activity in rat osteoarthritis model assessed as reduction of pain in rat at 10 umol/kg, po bid measured after 12 days. In kind it is functional. Also on record: scale not given: the % may be the effect or the level left.
Data set [10] in a line: Solubility in lipid. Format: physicochemical.
The subject of data set [11] is Rattus norvegicus. Description: Toxicity in rat assessed as increase of body temperature at 100 umol/kg, po after 1 hr. Format: organism-based. The note with it: in vivo.
In data set [12] the target is T1, Transient receptor potential cation channel subfamily V member 1. Description: Antagonist activity at human TRPV1 expressed in HEK293 cells assessed as inhibition of N-arachidonoyl-dopamine-induced effect. In kind it is functional, cell-based.
The nature of data set [13]: Cmax in rat at 10 µmol/kg, po. The following applies: in vivo.
A short description of data set [14]: Half life in rat at 10 µmol/kg, po. The note with it: in vivo.
Data set [15] concerns Rattus norvegicus. Kind of data set: Plasma clearance in rat at 10 µmol/kg, po. The following applies: in vivo.
Data set [16] is described as follows: Oral bioavailability in rat at 10 µmol/kg. The note with it: in vivo.
Data set [17] concerns Rattus norvegicus. Description: Volume of distribution at steady state in rat at 10 µmol/kg, po. The following applies: in vivo.
Data set [18] has as its system Rattus norvegicus. Kind of data set: Antiinflammatory activity in rat osteoarthritis model assessed as reduction of pain in rat at 10 umol/kg, po single dose. Also noted: scale not given: the % may be the effect or the level left.
The test system of data set [19] is Rattus norvegicus. Kind of data set: Antiinflammatory activity in rat post operative pain model assessed as reduction in pain in rat at 100 umol/kg, po single dose. Also on record: scale not given: the % may be the effect or the level left.
Data set [20] can be described thus: Solubility in PEG-400. In kind it is physicochemical.
A short description of data set [21]: Terminal phase volume of distribution at steady state in iv dosed rat. In kind it is ADME, organism-based. The following applies: in vivo, read-out: Vbeta.
A short description of data set [22]: Plasma clearance in iv dosed rat. In kind it is ADME, organism-based.
The next data set concerns the target Cytochrome P450 3A4 (Homo sapiens, UniProt P08684). Kind of data set: Inhibition of CYP3A4. In kind it is ADME. The following applies: TDE = time-dependent effect.
Data set [23] in a line: Genotoxicity in Salmonella Typhimurium by Ames test. Format: toxicity. The following applies: salmonella enterica subsp. enterica serovar typhimurium. For orientation: In the Ames test, an excess of revertant colonies over the control signals mutagenicity.

Values after ≈ are worked out from the molar mass of the structure shown.

T1 sequence (Q8NER1 whole entry): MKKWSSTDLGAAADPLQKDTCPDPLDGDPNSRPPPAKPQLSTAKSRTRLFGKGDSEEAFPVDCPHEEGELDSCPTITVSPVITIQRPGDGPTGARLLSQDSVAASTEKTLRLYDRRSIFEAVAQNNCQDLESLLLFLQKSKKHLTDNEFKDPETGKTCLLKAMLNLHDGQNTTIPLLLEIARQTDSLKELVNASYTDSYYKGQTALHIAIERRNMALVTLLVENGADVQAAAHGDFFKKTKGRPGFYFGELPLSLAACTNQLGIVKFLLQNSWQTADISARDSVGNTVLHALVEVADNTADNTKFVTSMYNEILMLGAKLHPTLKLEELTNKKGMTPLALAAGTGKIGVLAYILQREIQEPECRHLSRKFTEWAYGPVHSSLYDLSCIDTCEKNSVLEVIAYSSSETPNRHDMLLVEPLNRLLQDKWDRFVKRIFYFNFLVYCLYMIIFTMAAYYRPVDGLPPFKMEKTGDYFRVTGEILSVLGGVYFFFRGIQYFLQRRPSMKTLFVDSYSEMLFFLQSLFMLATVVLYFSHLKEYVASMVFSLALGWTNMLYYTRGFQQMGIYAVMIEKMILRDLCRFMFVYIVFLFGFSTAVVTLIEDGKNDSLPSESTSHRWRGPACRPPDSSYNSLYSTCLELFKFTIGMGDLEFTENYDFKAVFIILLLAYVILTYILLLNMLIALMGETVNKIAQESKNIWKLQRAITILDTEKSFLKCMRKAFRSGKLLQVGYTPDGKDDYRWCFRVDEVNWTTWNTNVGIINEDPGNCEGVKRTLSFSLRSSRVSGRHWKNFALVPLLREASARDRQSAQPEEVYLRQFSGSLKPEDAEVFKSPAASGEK
CYP3A4, sequence (P08684 whole entry): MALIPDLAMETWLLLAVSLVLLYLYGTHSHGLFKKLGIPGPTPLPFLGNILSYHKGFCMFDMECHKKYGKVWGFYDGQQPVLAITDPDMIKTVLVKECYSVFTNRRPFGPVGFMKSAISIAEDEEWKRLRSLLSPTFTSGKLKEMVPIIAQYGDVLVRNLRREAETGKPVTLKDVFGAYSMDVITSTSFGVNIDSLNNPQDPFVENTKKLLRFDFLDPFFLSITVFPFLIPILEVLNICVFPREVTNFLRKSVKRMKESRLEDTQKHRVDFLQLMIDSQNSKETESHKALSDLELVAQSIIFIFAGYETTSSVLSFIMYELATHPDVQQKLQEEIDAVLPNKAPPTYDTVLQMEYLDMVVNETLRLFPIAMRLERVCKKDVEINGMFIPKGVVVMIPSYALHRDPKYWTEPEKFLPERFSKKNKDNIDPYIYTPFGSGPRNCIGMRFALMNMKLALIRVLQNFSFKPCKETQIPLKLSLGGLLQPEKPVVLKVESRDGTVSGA
Transient receptor potential cation channel subfamily V member 1 (Rattus norvegicus, UniProt O35433), sequence (O35433 whole entry): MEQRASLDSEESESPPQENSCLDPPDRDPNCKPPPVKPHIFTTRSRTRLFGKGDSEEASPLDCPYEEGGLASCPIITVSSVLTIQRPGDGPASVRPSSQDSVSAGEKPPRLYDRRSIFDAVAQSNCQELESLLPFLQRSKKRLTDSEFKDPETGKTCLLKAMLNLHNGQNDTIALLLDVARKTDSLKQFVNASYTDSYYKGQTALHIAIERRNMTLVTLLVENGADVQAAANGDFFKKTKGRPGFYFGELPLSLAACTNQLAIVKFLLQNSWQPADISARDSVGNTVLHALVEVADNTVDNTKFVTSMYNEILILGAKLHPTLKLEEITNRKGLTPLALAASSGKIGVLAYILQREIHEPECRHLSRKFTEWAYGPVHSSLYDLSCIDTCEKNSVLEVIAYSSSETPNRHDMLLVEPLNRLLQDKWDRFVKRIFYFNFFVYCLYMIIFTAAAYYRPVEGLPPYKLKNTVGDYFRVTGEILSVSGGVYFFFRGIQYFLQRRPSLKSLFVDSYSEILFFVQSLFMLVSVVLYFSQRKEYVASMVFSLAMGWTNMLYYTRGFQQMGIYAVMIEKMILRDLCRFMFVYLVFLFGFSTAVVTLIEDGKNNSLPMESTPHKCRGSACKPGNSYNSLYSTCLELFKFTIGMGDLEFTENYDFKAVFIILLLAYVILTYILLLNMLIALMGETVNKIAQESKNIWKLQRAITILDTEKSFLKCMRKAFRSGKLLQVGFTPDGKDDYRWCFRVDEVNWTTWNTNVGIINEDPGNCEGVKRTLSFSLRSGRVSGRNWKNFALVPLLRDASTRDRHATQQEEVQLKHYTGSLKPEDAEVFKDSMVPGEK
Cytochrome P450 3A4, sequence (P08684 whole entry): as the sequence (P08684 whole entry) above

Regarding `O=C(NCc1ccc(C(F)(F)F)nc1N1CCOCC1)Nc1cccc2[nH]ncc12`, inhibition in [1] was half-maximal at 12 nM (IC50). The ED50 (commonly the midpoint of the dose-response relation) with Rattus norvegicus [2] was 33 µmol/kg.

For the compound `Cc1ccc(CNC(=O)Nc2cccc3[nH]ncc23)c(N2CCOCC2)n1`, the IC50 (in general, the midpoint of a concentration-inhibition curve) in data set [1] turned out to be 125 nM.

The compound `O=C(NCc1ccc(C(F)(F)F)cc1CCc1ccccc1)Nc1cccc2[nH]ncc12` gave an IC50 in data set [1] of 8 nM. Also, the ED50 in the data set with Rattus norvegicus [2] was 30 µmol/kg.

For `O=C(NCc1ccc(C(F)(F)F)cc1Oc1ccccc1)Nc1cccc2[nH]ncc12`, in [1], the 50% inhibitory concentration (IC50) came to 9 nM. In the data set with Rattus norvegicus [2], the ED50 is 22 µmol/kg.

Consider `O=C(NCc1ccc(C(F)(F)F)nc1N1CCCCC1)Nc1cccc2[nH]ncc12`, for which, in data set [1], the concentration for half-maximal inhibition (IC50) is 3.5 nM. For the same compound, the ED50 with Rattus norvegicus [2] stood at 30 µmol/kg.

In data set [1], `Cc1ccc(CNC(=O)Nc2cccc3[nH]ncc23)c(N2CCCCC2)n1` came in with an IC50 of 16 nM. Also, in the data set on Rattus norvegicus [2], the ED50 was found to be 53 µmol/kg.

In the case of `CC(C)(C)CCc1nc(C(F)(F)F)ccc1CNC(=O)Nc1cccc2[nH]ncc12`, the midpoint of inhibition in [1], the IC50, lay at 5 nM. In the data set on Rattus norvegicus [2], the ED50 was found to be 100 µmol/kg.

The compound `COCCCc1cc(C(F)(F)F)ccc1CNC(=O)Nc1cccc2[nH]ncc12` displayed an IC50 in [1] of 8 nM.

In the case of `CC(C)(C)COc1nc(C(F)(F)F)ccc1CNC(=O)Nc1cccc2[nH]ncc12`, in [1], the IC50 is 6 nM. In addition, in the data set with Rattus norvegicus [2], the ED50 was over 100 µmol/kg. For the same compound, the Kp in data set [3] amounted to 0.02.

Consider `CCn1ncc2c(NC(=O)NCc3ccc(C(F)(F)F)cc3CCC(C)(C)C)cccc21`, for which the IC50 in data set [4] was determined as 53 nM.

For the compound `CC(C)n1ncc2c(NC(=O)NCc3ccc(C(F)(F)F)cc3CCC(C)(C)C)cccc21`, in [4], the IC50 came to 69 nM.

Turning to `Cn1ncc2c(NC(=O)NCc3ccc(C(F)(F)F)cc3CCC(C)(C)C)cccc21`, the ED50 in the data set on Rattus norvegicus [5] was found to be 25 µmol/kg; in the data set on Rattus norvegicus [6], 66 µmol/kg. The solubility (usually how much of the substance goes into solution per volume) in [7] is under 0.01 µg/mL; in data set [10], over 67 µg/mL. Further, the IC50 was found to be 277 nM in [8], 15 nM in data set [12] and 7 nM in [4]. Further, at CYP3A4, the inhibition (commonly the share of the control response that was lost under treatment) at 10 µM amounted to 10%. Moreover, the values for the Activity with Rattus norvegicus [9], in the data set on Rattus norvegicus [18] and with Rattus norvegicus [19] were 67%, 20% and 45%, respectively. In addition, the T in the data set with Rattus norvegicus [11] came out at 0.9 °C. Besides, the Cmax (as a rule, the highest concentration seen after dosing) in [13] worked out at 140 ng/mL. Besides, the half-life (usually the time in which the quantity being followed falls by half) in [14] is 3.1 h. Further, in the data set on Rattus norvegicus [15], the clearance was determined as 13.3 mL/min/kg. Further, the bioavailability (commonly the share of a dose that reaches the circulation, judged against a reference dose that is usually intravenous) in [16] was determined as 58%. Moreover, the Vdss in the data set on Rattus norvegicus [17] was determined as 3.4 L/kg. The Kp in data set [3] amounted to 0.32.

Consider `O=C(NCc1ccc(C(F)(F)F)nc1)Nc1cccc2[nH]ncc12`, for which, in [1], the IC50 is 184 nM. Further, the ED50 in the data set with Rattus norvegicus [2] is 81 µmol/kg.

In data set [1], `O=C(NCc1ccc(C(F)(F)F)nc1Oc1ccccc1)Nc1cccc2[nH]ncc12` came in with an IC50 of 9 nM. Moreover, the ED50 in the data set on Rattus norvegicus [2] worked out at 30 µmol/kg.

With `COCCOc1nc(C(F)(F)F)ccc1CNC(=O)Nc1cccc2[nH]ncc12`, 18 nM corresponded to half-maximal inhibition in [1] (IC50).

Turning to `COCCCc1nc(C(F)(F)F)ccc1CNC(=O)Nc1cccc2[nH]ncc12`, the half-maximal inhibitory concentration (IC50) in [1] came out at 12 nM. Moreover, the ED50 in the data set on Rattus norvegicus [2] is over 30 µmol/kg.

`CC(C)c1cc(C(F)(F)F)ccc1CNC(=O)Nc1cccc2[nH]ncc12` yielded an IC50 in data set [1] of 9 nM. For the same compound, the ED50 in the data set with Rattus norvegicus [2] amounted to 14 µmol/kg.

In turn, `CC(C)(F)CCc1cc(C(F)(F)F)ccc1CNC(=O)Nc1cccc2[nH]ncc12` came in with an IC50 in data set [1] of 6 nM. For the same compound, the ED50 in the data set with Rattus norvegicus [2] turned out to be 58 µmol/kg.

Consider `CC(C)(C)CCc1cc(C(F)(F)F)ccc1CNC(=O)Nc1cccc2[nH]ncc12`, for which half-maximal inhibition in data set [1] (IC50) was put at 4.3 nM. Also, the ED50 in the data set on Rattus norvegicus [2] came to 15 µmol/kg; with Rattus norvegicus [5], 7 µmol/kg; in the data set on Rattus norvegicus [6], 71 µmol/kg. Further, the results for the solubility in data set [7] and in [20] were 0.42 µg/mL (≈ 1 µM) and over 100 µg/mL, respectively. Further, the Vd in data set [21] is 5.4 L/kg. The same compound gave a clearance in data set [22] of 20 mL/min/kg. In addition, at Cytochrome P450 3A4, the “inhibition (INH)” value is listed as “tde”. Besides, on CYP3A4, the inhibition at 10 µM turned out to be 86%. The Activity entry in data set [23] is “Non-toxic”. In addition, the half-life in data set [14] is 4.3 h. For the same compound, the bioavailability in [16] was found to be 35%. Also, in data set [3], the Kp is 0.45.

`O=C(NCc1ccc(-c2ccccc2)nc1N1CCCCC1)Nc1cccc2[nH]ncc12` came in with an IC50 in [1] of 14 nM. The ED50 in the data set with Rattus norvegicus [2] stood at 37 µmol/kg.

With `CC(C)(C)c1ccc2c(c1)CC[C@H]2NC(=O)Nc1cccc2[nH]ncc12` [ABT-102], the Kp in [3] worked out at 0.32.
